Assay results from patent US8318419B2, “Antiviral screening method to identify inhibitors of phosphatidylinositol 4,5-bisphosphate [PI(4,5)P2] binding to the HIV gag matrix (MA) protein” (priority 2007, dated 2012).
Values joined by “and” are separate entries in the source; they are usually repeats but may differ in a detail not shown here. Equal entries are not always repeated. Where two headings read alike, the source gives them in different places.

What was measured:
[1] = target: T1, HIV-1 myrMA (Human immunodeficiency virus type 1 group M subtype B, UniProt P12493); conditions: for binding to myrMA (changes in NMR spectra upon titration): 1H-15N HSQC titration; for triggering of myristate exposure: NMR; for Kd: read-out: dissociation constant (Kd), fit to 1:1 binding isotherms, 35° C., pH 5.5
Description: (§1) HIV-1 myrMA and myr(−)MA proteins were prepared as described (19, 37). Phosphoinositides PI(4,5)P2, di-C4-PI(4,5)P2, di-C8-PI(4,5)P2, di-C4-PI, di-C4-PI(3)P, di-C4-PI(4)P, di-C4-PI(5)P, di-C4-PI(3,5)P2, di-C8-PI(3,4,5)P2, and di-C4-PI (Echelon, Salt Lake City, Utah) and di-C4-phosphatidylcholine (Avanti Polar Lipids) were obtained commercially and used without further purification. Samples for all NMR experiments were prepared in 50 mM sodium phosphate at pH 5.5 and 5 mM DTT.
(§2) NMR data [Bruker DRX (Billerica, Mass.); 800 MHz ^1H and DMX 600 MHz ^1H spectrometers equipped with cryoprobes] were obtained from a combination of 2D, 3D, and 4D NOESY data, for combinations of natural abundance; ^15N-, ^15N-, and ^13C-labeled protein samples (35° C.). Protein signals were assigned as described (19, 37). Phosphoinositide signals were assigned from 2D heteronuclear multiple-quantum coherence (HMQC), heteronuclear multiple bond correlation (HMBC), NOESY, total correlation spectroscopy (TOCSY), and COSY data (the ^1H and ^13C NMR signals of the 1′- and 2′-acyl chains were resolved in the 2D spectra), and intra- and intermolecular ^1H-^1H NOEs were assigned from 2D (^1H-^1H), 3D (^13C-, ^15N-, and ^13C-edited/^12C-double-half-filtered), and 4D ([…] and ^13C/^13C-edited) NOESY data (39, 40). Binding isotherms from ^1H-^15N NMR HSQC titration experiments were calculated with ORIGIN 7.0 software (Microcal Software, Northampton, Mass.).

[2] = target: T1, HIV-1 myrMA; type: binding; parameters: mediated by the matrix (MA) domain of Gag, a 132-residue polypeptide containing an N-terminal myristyl group; made in house; conditions: for Kd: fit to 1:1 binding isotherms, read-out: dissociation constant (Kd)
Description: as §1, §2

Compound	binding to myrMA (changes in NMR spectra upon titration) [1]	triggering of myristate exposure ([1]; myrMA)	other results
CCCC(=O)OC[C@H](COP(=O)(O)O[C@@H]1[C@H](O)[C@H](OP(=O)(O)O)[C@@H](O)[C@H](O)[C@H]1O)OC(=O)CCC [di-C4-PI(3)P]	No detectable changes	–	–
CCCC(=O)OC[C@H](COP(=O)(O)O[C@H]1[C@H](O)[C@@H](OP(=O)(O)O)[C@H](OP(=O)(O)O)[C@@H](OP(=O)(O)O)[C@H]1O)OC(=O)CCC [di-C4-PI(3,4,5)P3]	–	triggers myristate exposure	Kd ([1]; myrMA): 81 ± 18 µM
CCCC(=O)OCC(COP(=O)(O)OC1C(O)C(OP(=O)(O)O)C(O)C(OP(=O)(O)O)C1O)OC(=O)CCC (stereo not drawn) [di-C4-PI(3,5)P2]	does not bind	does not bind myrMA or trigger myristate exposure	–
CCCC(=O)OCC(COP(=O)(O)OC1C(O)C(O)C(OP(=O)(O)O)C(O)C1O)OC(=O)CCC (stereo not drawn) [di-C4-PI(4)P]	No detectable changes	–	–
CCCC(=O)OC[C@H](COP(=O)(O)O[C@@H]1[C@H](O)[C@H](O)[C@@H](OP(=O)(O)O)[C@H](OP(=O)(O)O)[C@H]1O)OC(=O)CCC [di-C4-PI(4,5)P2, di-butyryl-PI(4,5)P2]	–	causes extrusion of the myristyl group	chemical-shift changes ΔδHN of group 1 residues ([1]; myrMA, upon addition of the lipid): 0.1-0.8 ppm; Kd ([1]; myrMA): 150 ± 30 µM; Kd [2]: 240 ± 60 µM
CCCC(=O)OCC(COP(=O)(O)OC1C(O)C(O)C(O)C(OP(=O)(O)O)C1O)OC(=O)CCC (stereo not drawn) [di-C4-PI(5)P]	No detectable changes	–	–
CCCC(=O)OC[C@H](COP(=O)(O)OC1[C@H](O)[C@H](O)C(O)[C@H](O)[C@H]1O)OC(=O)CCC (stereo partly drawn) [di-C4-PI]	No detectable changes	–	–
CCCC(=O)OC[C@H](COP(=O)([O-])OCC[N+](C)(C)C)OC(=O)CCC [di-C4-phosphatidylcholine]	does not bind	–	–
CCCCCCCC(=O)OC[C@H](COP(=O)(O)O[C@@H]1[C@H](O)[C@H](O)[C@@H](OP(=O)(O)O)[C@H](OP(=O)(O)O)[C@H]1O)OC(=O)CCCCCCC [di-C8-PI(4,5)P2, di-octyl-PI(4,5)P2]	–	–	affinity for myr(−)MA relative to di-C4-PI(4,5)P2 [2]: 3 fold and > 3 fold; Kd [2]: 83 ± 4 µM
PI(3)P	do not bind MA with significant affinity	do not bind MA with significant affinity or trigger myristate exposure	–
PI(3,5)P2	do not bind MA with significant affinity	do not bind MA with significant affinity or trigger myristate exposure	–
PI(4)P	do not bind MA with significant affinity	do not bind MA with significant affinity or trigger myristate exposure	–
PI(5)P	do not bind MA with significant affinity	–	–
phosphatidylinositol (PI)4,5-bisphosphate [PI(4,5)P2]	binds directly	triggers myristate exposure	–
